# Activity calls are given as the source filed them. The calls are words filed in the database; no cut-off is given here.
# Tests used:
# [1] = target: Superoxide dismutase [Cu-Zn] (Homo sapiens) (UniProt P00441); assay: Binding affinity to Superoxide dismutase [Cu-Zn] (unknown origin) after 10 min at 20 degC by Stern-Volmer plot analysis
# [2] = target: Superoxide dismutase [Cu-Zn] (Homo sapiens) (UniProt P00441); assay: Binding affinity to Superoxide dismutase [Cu-Zn] (unknown origin) at 3.86 10^-5 mol/l after 10 min by UV-Vis spectrophotometric analysis
# [3] = target: Superoxide dismutase [Cu-Zn] (Homo sapiens) (UniProt P00441); assay: Binding affinity to Superoxide dismutase [Cu-Zn] (unknown origin) after 10 min at 30 degC by Stern-Volmer plot analysis
# [4] = target: Superoxide dismutase [Cu-Zn] (Homo sapiens) (UniProt P00441); assay: Binding affinity to Superoxide dismutase [Cu-Zn] (unknown origin) after 10 min at 37 degC by Stern-Volmer plot analysis
# [5] = target: Superoxide dismutase [Cu-Zn] (Homo sapiens) (UniProt P00441); assay: Binding affinity to Superoxide dismutase [Cu-Zn] (unknown origin) at 3.86 10^-5 mol/l after 10 min by fluorometric analysis
# Oryctolagus cuniculus [6] = species on record: Oryctolagus cuniculus; assay: Inactivation of New Zealand white Oryctolagus cuniculus (rabbit) Superoxide dismutase [Cu-Zn] at 28.8 mg QD for 7 days measured after 7 days by pyrogallol-oxidation method; assay type: functional, organism-based
# Oryctolagus cuniculus [7] = species on record: Oryctolagus cuniculus; assay: Inactivation of New Zealand white Oryctolagus cuniculus (rabbit) Superoxide dismutase [Cu-Zn] at 28.8 mg QD for 7 days measured up to 7 days by pyrogallol-oxidation method; assay type: functional, organism-based
# Chain of Superoxide dismutase [Cu-Zn] (Homo sapiens) (P00441 whole entry): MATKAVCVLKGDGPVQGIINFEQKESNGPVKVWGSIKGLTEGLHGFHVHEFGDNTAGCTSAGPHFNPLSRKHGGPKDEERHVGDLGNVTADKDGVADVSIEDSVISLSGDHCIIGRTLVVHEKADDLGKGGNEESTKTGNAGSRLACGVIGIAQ
K [1],Kq [1],Activity [2],K [3],Kq [3],K [4],Kq [4],Activity [5],Activity (Oryctolagus cuniculus [6]),Activity (Oryctolagus cuniculus [7]),Structure (SMILES)
6.73 ×10⁷ L/mol,1.01 ×10¹³ L/mol/s,Active,7.9 ×10⁶ L/mol,7.73 ×10¹² L/mol/s,1.34 ×10⁶ L/mol,6.42 ×10¹² L/mol/s,Active,–,–,C[C@H]1c2cccc(O)c2C(=O)C2=C(O)[C@]3(O)C(=O)C(C(N)=O)=C(O)[C@@H](N(C)C)[C@@H]3[C@@H](O)[C@@H]21
1.44 ×10⁵ L/mol,4.37 ×10¹² L/mol/s,Active,8.93 ×10⁴ L/mol,4.22 ×10¹² L/mol/s,3.62 ×10⁴ L/mol,3.96 ×10¹² L/mol/s,Active,–,–,CN(C)[C@@H]1C(O)=C(C(N)=O)C(=O)[C@@]2(O)C(O)=C3C(=O)c4c(O)cccc4[C@@](C)(O)[C@H]3[C@H](O)[C@@H]12
–,5.97 ×10¹² L/mol/s,Active,–,5.3 ×10¹² L/mol/s,–,5.25 ×10¹² L/mol/s,Active,inactive,Active,CN(C)[C@@H]1C(O)=C(C(N)=O)C(=O)[C@@]2(O)C(O)=C3C(=O)c4c(O)cccc4[C@@](C)(O)[C@H]3C[C@@H]12

# — ChEMBL document CHEMBL3045813, “Study of the inactivation of copper, zinc superoxide dismutase by tetracycline analogues” (Med Chem Res, 2008)
